Test results taken from patent publication US8889378B2, “Cytochrome C synthesis inhibitors” (priority 2006, dated 2014).

Tests used:
[1] = system: system II (CcsBA) cytochrome c biogenesis (heme acquisition); experiment: Exogenous heme addition, E. coli ΔccmΔhemA (RK105) with system II (CcsBA), chuA and pRGK332; assay type: cell-based; conditions: averaged over 3 trials, Hill curve fit, read-out: heme concentration at which holocytochrome c4:6×His levels reached 50% of maximum synthesis
Protocol: Cultures of RK105 (E. coli ΔccmΔhemA) harboring pRGK333 (system I), pRGK332 (cytochrome c4:6×His), and pHPEX2 (Varnado and Goodwin, 2004) or pRGK348 (system II) and pRGK332 were grown in LB overnight in the presence of 300 μM aminolevulinic acid (ALA). 100 mL cultures were started from the overnight culture with a 1% inoculum in LB devoid of ALA for two and one-half hours. After two and one-half hours, the 100 mL cultures had exhausted their cellular supply of ALA and required exogenous heme (or ALA) for further growth. The ALA exhausted cultures were divided into 5 mL aliquots to which IPTG (1 mM, to induce the synthesis of the system I proteins) and heme (0 μM to 100 μM) (Sigma) were added. […]
Heme stains were performed as described (Feissner et al., 2003) using SuperSignal Femto chemiluminescent substrate (Pierce). Heme stain quantitation used LOLITA II (Low Light Test Array; raytestUSA; Wilmington, N.C.) for standardization of light intensity detection on an LAS1000plus Luminescent Image Analyzer CCD camera system. […] Chemiluminescence from heme stains and Western blots were detected using an LAS-1000plus Luminescent Image Analyzer CCD camera system (Fujifilm). Protein concentrations were determined using the BCA assay (Pierce) using BSA as a standard. […] Protein concentrations were determined with the BCA assay kit (Pierce) using BSA as a standard. […]

E. coli ΔccmΔhemA = experiment: Growth of E. coli ΔccmΔhemA on exogenous heme, without or with the heme porin ChuA (pHPEX2); assay type: cell-based
Protocol: FIG. 13. Growth of E. coli DccmDhemA with exogenous heme. Overnight cultures of E. coli DccmDhemA or containing pHPEX2 and (A) pRGK333 or (B) pRGK334 were diluted into LB broth without ALA or heme. The cultures were incubated aerobically at 37° C. for two and one-half hours to exhaust the cultures for ALA. Heme was added at the indicated concentrations when noted and growth (A600) was measured. For reference, the growth of E. coli Dccm (wild-type) containing either pRGK333 or pRGK334 is shown (t).
To determine if exogenous heme rather than ALA could support growth, an overnight culture of E. coli ΔccmΔhemA, supplemented with 300 μM ALA, was used to inoculate [1% (v/v)] fresh LB medium containing different concentrations of heme (0 μM to 100 μM).
Since the outer membranes of some strains of E. coli are poorly permeable to heme, the heme porin from pHPEX2 (Varnado and Goodwin, 2004) was expressed. The tetracycline-resistant pHPEX2 expresses the gene for the heme receptor (chuA) from E. coli O157:H7 using the IPTG-inducible lacUV5 promoter. ChuA is a member of a class of relatively nonspecific enterobacterial heme receptors that are TonB-dependent and facilitate heme acquisition from the environment and recognize free heme and heme bound to a variety of proteins (see FIG. 11). Growth of E. coli ΔccmΔhemA containing either pRGK333 or pRGK334 and pHPEX2 was dependant on exogenous heme (see FIG. 13). […] The pHPEX2 also facilitates the heme-dependent production of the B. pertussis c4:6×His when the plasmids with system I or system II are present (see below).

[2] = Heme precipitation in culture medium; assay type: physicochemical
Protocol: (§1) Cultures of RK105 (E. coli ΔccmΔhemA) harboring pRGK333 (system I), pRGK332 (cytochrome c4:6×His), and pHPEX2 (Varnado and Goodwin, 2004) or pRGK348 (system II) and pRGK332 were grown in LB overnight in the presence of 300 μM aminolevulinic acid (ALA). 100 mL cultures were started from the overnight culture with a 1% inoculum in LB devoid of ALA for two and one-half hours. After two and one-half hours, the 100 mL cultures had exhausted their cellular supply of ALA and required exogenous heme (or ALA) for further growth. The ALA exhausted cultures were divided into 5 mL aliquots to which IPTG (1 mM, to induce the synthesis of the system I proteins) and heme (0 μM to 100 μM) (Sigma) were added. It was discovered that heme at greater than 60 μM would precipitate over time with no IPTG (1 mM) present and at greater than 100 μM in the presence of IPTG. After one hour, arabinose (0.2% to induce the synthesis of cytochrome c4:6×His) was added and cultures were grown for an additional three hours. Cells were harvested and protein was extracted using B-PER as previously described (Feissner et al., 2006). Cytochrome c4:6×His was purified from 200 μg of total protein over nickel affinity resin to eliminate free heme. 20 μL of each sample were subjected to SDS-PAGE, transferred to nitrocellulose, and heme stained as described above. […]

[3] = system: system I cytochrome c biogenesis (heme acquisition); experiment: Exogenous heme addition, E. coli ΔccmΔhemA (RK105) with system I, pRGK332 and pHPEX2; assay type: cell-based
Protocol: as §1, with “2006).” for “2006). Cytochrome c4:6×His was purified from 200 μg of total protein over nickel affinity resin to eliminate free heme. 20 μL of each sample were subjected to SDS-PAGE, transferred to nitrocellulose, and heme stained as described above.”
Heme stains were performed as described (Feissner et al., 2003) using SuperSignal Femto chemiluminescent substrate (Pierce). Heme stain quantitation used LOLITA II (Low Light Test Array; raytestUSA; Wilmington, N.C.) for standardization of light intensity detection on an LAS1000plus Luminescent Image Analyzer CCD camera system. […] Chemiluminescence from heme stains and Western blots were detected using an LAS-1000plus Luminescent Image Analyzer CCD camera system (Fujifilm). Protein concentrations were determined using the BCA assay (Pierce) using BSA as a standard. […] Protein concentrations were determined with the BCA assay kit (Pierce) using BSA as a standard.
To directly examine the difference in heme acquisition between systems I and II, varying concentrations of exogenous heme were supplied to E. coli ΔccmΔhemA, expressing ChuA with pRGK332 and either system plasmid. […] The cytochrome c4 acts as a trap, allowing quantitation of the levels of heme that have fluxed through each system. […]

[4] = system: system I cytochrome c biogenesis; experiment: Heme competition with ZnPPIX inhibition, E. coli Δccm with system I, ChuA and cytochrome c4:Pho; assay type: cell-based; conditions: grown with 12.5 μM ZnPPIX
Protocol: FIG. 22. Western blot (A: lanes 1-7) and heme stain (B: lanes 1-5) indicating ZnPPIX competes with heme. Overnight cultures of E. coli Dccm containing pRGK333, pRGK331, and pHPEX2 were diluted into fresh LB broth containing […] ZnPPIX and grown to mid-log phase. IPTG (1 mM) was added and incubation continued for 30 minutes. Heme was added and incubation continued for 30 minutes. Arabinose (0.2%) was added for three hours to induce synthesis of cytochrome c4:PhoA and soluble B-PER protein extracts were prepared. The concentrations ([…]) of ZnPPIX and heme are given above each lane. Above the panel pSysI is pRGK333, pc4:PhoA is cytochrome c4:PhoA, and Dccm is E. coli Dcam.
ZnPPIX is inhibiting downstream of holoCcmE since this “heme reservoir” is no longer available for cytochrome c4 biogenesis. The WWD containing protein CcmF may the target for ZnPPIX (see FIG. 11). If the target for ZnPPIX is a heme binding protein (site), then exogenous heme should compete with this inhibition (i.e. ZnPPIX binding). […] The same heme stained polypeptides were confirmed to be full length cytochrome c4:Pho fusion proteins by Western blot (FIG. 22A, lane 1-5). ZnPPIX is a specific inhibitor of c-type cytochrome biogenesis by either system I or system II, but heme is able to compete with ZnPPIX inhibition.

Substance: iron protoporphyrin IX [heme]
- EC50 [1]: 54.4 µM
- growth on exogenous heme (E. coli ΔccmΔhemA; chuA (pHPEX2) expressed, pRGK333 or pRGK334): growth to near wild-type levels
- growth on exogenous heme (E. coli ΔccmΔhemA; heme 0 μM to 100 μM, no heme porin): not detected until four to five days
- holocytochrome c4:6×His production on exogenous heme (E. coli ΔccmΔhemA; no heme porin, system I or system II plasmid and c4:6×His reporter): no holocytochrome c4:6×His production was detected
- heme concentration above which heme would precipitate over time ([2]; in the presence of IPTG): greater than 100 μM
- heme concentration above which heme would precipitate over time ([2]; no IPTG (1 mM) present): greater than 60 μM
- heme concentration at which maximum synthesis of holocytochrome c4:6×His occurs ([3]; system I): less than 10 μM
- apparent affinity for heme, system I versus system II ([3]; system I compared with system II): at least twenty fold higher
- EC50 ([3]; system I, averaged over 4 trials, Hill curve fit, read-out: heme concentration restoring holocytochrome c4:6×His levels to 50% of maximum): 1.9 µM
- holocytochrome c4:Pho with increasing concentrations of additional heme [4]: corresponding increase in holocytochrome c4:Pho
